Results taken from patent publication US20230355763A1, “NANOPARTICLE VACCINES AND USES THEREOF FOR PROPHYLAXIS AND TREATMENT OF ATHEROSCLEROSIS USING PEPTIDE 210 AS AN ANTIGEN” (CEDARS-SINAI MEDICAL CENTER, priority 2022, published 2023).

What was measured:
human PBMCs [1] = test: Activation Induced Marker (AIM) assay in human PBMC; format: cell-based
Experimental: Cryo-preserved PBMCs were thawed, rinsed in anti-aggregation solution (Immunospot), and seeded in culture plates at a density of 3×10^6 cells per ml of RPMI 1640 medium supplemented with 10% heat-inactivated pooled human serum and 1× antibiotic/antimycotic. After resting for 4 hours, cells were preincubated with 0.5 mg/ml anti-CD40 antibody for 15 minutes then stimulated with 20 μg/ml P210 peptide, 0.5× T cell stimulation cocktail containing PMA and ionomycin (Thermo Fisher), or CMV (pp65) Peptide Pool (StemCell Tech) as a non-relevant antigen control, whereas cells without treatment served as non-stimulated control. Cells were harvested 16 hours after seeding, stained for viability (LIVE/DEAD Fixable Aqua Dead Stain Kit, Thermo Fisher), and subjected to cell surface staining for flow cytometry using the following antibodies: CD4, CD8, CD25, CD69, OX40 (CD134), CD137 (4-1 BB) and CD154 (CD40L). Isotypes were used as staining control and eFluor506 labelled CD14, CD16 and CD19 antibodies were used as dump staining to exclude B cells, dendritic cells, macrophages, granulocytes, eosinophil cells and neutrophil cells. The results are expressed as fold change (ratio between the signal in the antigen stimulated condition and the signal in the unstimulated condition) for each subject, consistent with the reported AIM assay.

[2] = tested on: PBMCs from HLA-A*02:01(+) volunteers; test: ApoB KTTKQSFDL pentamer(+) CD8+ T cells in human PBMCs cultured with P210; format: cell-based; conditions: PBMCs cultured with 20 μg/ml P210 for 5 days
Experimental: (§1) Proimmune was contracted to screen for potential binding epitopes in P210 to HLA-A*02:01. […] For pentamer staining, commercially available HLA-A*02:01 typed cryo-preserved PBMCs (Immunospot) were thawed, rinsed in anti-aggregation solution (Immunospot) and divided into 2×10^6 cell aliquots. ApOBKTTKQSFDL (SEQ ID NO:2) pentamer staining was performed according to manufacturer's instruction, with the HLA-A*02:01 Negative Pentamer (ProImmune) as negative control. Each sample stained for ApOBKTTKQSFDL (SEQ ID NO:2) pentamer had its corresponding negative control stain. Cells were washed and then stained for CD8 (LT8) andddCD19 (HIB19). Cells were again washed after staining and resuspended in 1% paraformaldehyde in 1% BSA/0.1% sodium azide and analyzed. ApOBKTTKQSFDL (SEQ ID NO:2) pentamer positive cells for each sample were determined based on the corresponding Negative Pentamer.

human PBMCs [3] = test: Peptide stimulation of human PBMC (T effector / effector memory, Response Index); format: cell-based; conditions: 20 μg/ml P210, 72 h; ACS PBMCs compared to controls
Experimental: Cryo-preserved PBMCs were thawed, rinsed and cultured as in AIM assay but without resting. Cells were stimulated with 20 μg/ml P210 peptide or 0.5× T cell stimulation cocktail containing phorbol 12-myristate 13-acetate (PMA) and ionomycin (Thermo Fisher) with non-treated cells serving as negative control. Culture medium was added at ⅓ of the starting volume 48 hours later to replenish the nutrients in the medium. Cells were harvested 72 hours after seeding, stained for viability (LIVE/DEAD Fixable Aqua Dead Stain Kit, ThermoFisher), and subjected to cell surface staining for flow cytometry using the following antibodies: CD3, CD4, CD8, CD45RA, CD45RO, CD62L, and CD197 (CCR7). Isotypes were used as staining control. CD4^+ or CD8^+ T Effector cells were gated on CD45RO^+CD62L^−CD197^−. T Effector Memory cells were CD45RO^+CD45RA^−CD62L^−CD197^−.
Results were Tabulated as Response Index Using the Following Calculation:
(% peptide stimulation−% no stimulation)/(% cocktail stimulation)×100.
The results are expressed as Response Index to account for inherent variations introduced by culturing cells in vitro over time, controlled for by assessing response relative to baseline cell phenotype (% no stimulation) and maximal stimulation (% cocktail stimulation) for each subject PBMC. Each data point represents one subject.

A2Kb Tg ApoE-/- mice = test: Functional expression of A2Kb transgene (A2V7 immunization); format: in vivo, mouse; conditions: male mice, 20 μg/100 μl s.c. in IFA; compared to IFA-injected mice, P<0.05
Experimental: Male A2Kb Tg ApoE^−/− mice were immunized with the HLA-A*02:01-restricted peptide A2V7 from human hepatitis C virus (HCV NS5a 1987-1995, VLSDFKTWL (SEQ ID NO:34); ProImmune) emulsified in incomplete Freund's adjuvant (IFA; MP Biomedicals) at 9 and 10 weeks of age by subcutaneous injection at a dose of 20 μg/100 μl. Mice immunized with 100 μl IFA alone served as control. Mice were euthanized at 11 weeks of age. HLA-A*02:01 restricted antigen specific immune response was evaluated by flow cytometric analysis of splenocytes stained with CD19 (6D5), CD8a (KT15), and PE-conjugated HLA-A*02:01/A2V7-pentamer (ProImmune).

HLA-A*02:01 = molecular target: T1, HLA-A*02:01 (Homo sapiens, UniProt P04439, D140Y/D185E/D98H/E176V/E277Q/G131W/G231S/I119V/I121R/I166T/I218V/L300P/L318F/N151K/N90K/P208A/P217A/Q86G/Q94H/R138H/R169H/T345S); test: REVEAL binding assay of 9-mer P210 peptides; conditions: for binding to HLA-A*02:01 (REVEAL binding score), in words: tested by ProImmune
T1 construct: purchased ProImmune (contracted REVEAL assay service)
Experimental: The human Class-I HLA that occurs with the highest frequency in North America is HLA-A*02:01; and P210 epitope binding to HLA-A*02:01 was tested by ProImmune using the REVEAL assay. The REVEAL assay used 9-mer sequential peptides of P210 to assess binding to HLA-A*02:01 (Table 2): a plurality of 9-amino acid fragments, each identical to residues 1-9, 2-10, 3-11, 4-12, 5-13, 6-14, 7-15, 8-16, 9-17, 10-18, 11-19, or 12-20 of P210. […] ApOBKTTKQSFDL (SEQ ID NO:2) pentamer was able to detect a small but significant population of P210-specific CD8+ T cells in PBMCs from healthy HLA-A*02:01(+) volunteers (FIG. 7B-7E).
as §1

[4] = 20 μg/ml P210, 16 h, ACS patients compared to control subjects

What does the source list for “KTTKQSFDLSVKAQYKKNKH (listed as Homo sapiens) [Peptide P210, ApoB-100 derived peptide P210 (ApoB-100 3136-3155)]”?
CD8+CD69+CD134+ T cells after P210 stimulation (human PBMCs [1]; [4]): no such increase was observed; mean increase in CD4+CD69+CD134+ T cells after P210 stimulation (human PBMCs [1]; [4]): 1.5 fold; markers for other AIM(+) cells (CD25+CD134+, CD69+CD154+, CD134+CD137+) (human PBMCs [1]; after P210 stimulation, ACS vs controls): not different compared to Controls; tested samples with an increase of pentamer specific CD8+ T cells [2]: 5 out of 8; CD4+ T effector cell response to P210 (human PBMCs [3]): not significantly different; CD8+ T effector memory response to P210 (human PBMCs [3]): significant increase; CD8+ T effector response to P210 (human PBMCs [3]): significant increase

“VLSDFKTWL [Peptide A2V7, HLA-A*02:01-restricted peptide from human hepatitis C virus (HCV NS5a 1987-1995)]” was tested. Which “A2V7-pentamer+ CD8+ T cells in the spleen” value (A2Kb Tg ApoE-/- mice) did it give?
Its value is “significantly increased”.

What does the source list for “KTTKQSFDL (listed as Homo sapiens) [Peptide 1]”?
binding to HLA-A*02:01 (REVEAL binding score) (HLA-A*02:01; sequential 9-mer P210 peptides): KTTKQSFDL*; binding to HLA-A*02:01 (REVEAL binding score), in words (HLA-A*02:01; listed as First 9-mer sequence in P210): high binding score; binding to HLA-A*02:01 (REVEAL binding score), in words (HLA-A*02:01; listed as first 9-mer): scored well, comparable to the positive control
